target: T1, human PPARγ1 (Homo sapiens, UniProt P37231); test: Human PPARγ1 antagonist assay (luciferase reporter in PPARγ:RXRα:4ERPP/CHO-K1 cells); type: cell-based; conditions: test compound 10^−6 M, 10 nM compound A as stimulant, luciferase activity, 24 hrs, read-out: Inhibitory rate (%)
T1 construct: expressed in transfected cells; host or cells: CHO-K1 cells stably transfected with pVgRXR2-hPPARγ and reporter plasmid pGL3-4ERPP-TK neo
T1 sequence (P37231 1-477 isoform P37231-2): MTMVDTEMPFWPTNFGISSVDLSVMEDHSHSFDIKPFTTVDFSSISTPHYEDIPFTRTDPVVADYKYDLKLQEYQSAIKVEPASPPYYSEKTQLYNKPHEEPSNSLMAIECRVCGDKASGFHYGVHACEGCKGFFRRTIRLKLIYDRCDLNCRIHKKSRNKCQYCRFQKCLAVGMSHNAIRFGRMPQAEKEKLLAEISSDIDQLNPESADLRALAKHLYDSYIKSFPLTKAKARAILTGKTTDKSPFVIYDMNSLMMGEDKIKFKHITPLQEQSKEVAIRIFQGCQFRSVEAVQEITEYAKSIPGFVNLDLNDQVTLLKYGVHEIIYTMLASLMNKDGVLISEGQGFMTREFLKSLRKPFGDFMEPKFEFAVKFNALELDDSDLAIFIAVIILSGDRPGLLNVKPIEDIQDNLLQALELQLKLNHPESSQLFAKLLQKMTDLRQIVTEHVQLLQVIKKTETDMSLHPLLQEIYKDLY
T1 sequence (P19793 1-462 partner): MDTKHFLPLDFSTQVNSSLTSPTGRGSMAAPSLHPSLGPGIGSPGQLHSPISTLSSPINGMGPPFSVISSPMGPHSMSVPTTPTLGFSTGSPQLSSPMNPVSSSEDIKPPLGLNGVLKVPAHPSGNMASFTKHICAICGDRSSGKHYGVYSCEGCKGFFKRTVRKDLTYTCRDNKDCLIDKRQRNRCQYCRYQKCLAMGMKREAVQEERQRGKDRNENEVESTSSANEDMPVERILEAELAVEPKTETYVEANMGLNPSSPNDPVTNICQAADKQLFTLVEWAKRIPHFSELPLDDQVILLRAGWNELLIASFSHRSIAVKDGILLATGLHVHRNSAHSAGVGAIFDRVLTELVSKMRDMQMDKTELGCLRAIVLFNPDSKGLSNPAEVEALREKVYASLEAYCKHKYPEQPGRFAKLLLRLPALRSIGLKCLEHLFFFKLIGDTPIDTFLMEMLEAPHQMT
Description: PPARγ:RXRα:4ERPP/CHO-K1 cells (obtained in Reference Example 5a) cultured in Ham's F-12 medium (GIBCO, Inc.) supplemented with 10% fetal bovine serum (TRACE SCIENTIFIC, Ltd.) were seeded in a well of a 96 well white plate at 2×10^4 cells/well and cultured under 37° C. 5% CO2 conditions for 24 hrs. After removal of the medium, Ham's F-12 medium (GIBCO) containing 60 μl of 0.1% BSA (not containing fatty acid) (Wako Pure Chemical Industries, Ltd.), 20 μl of 10^−5M or 10^−6 M test compound and 20 μl of compound A having a final concentration of 10 nM as a stimulant were added, and the cells were cultured under 37° C. 5% CO2 conditions for 24 hrs. After removal of the medium, 40 μl of Pickagene LT7.5 (Wako Pure Chemical Industries, Ltd.) 2-fold diluted with HBSS (HANKS' BALANCED SALT SOLUTION) (BIO WHITTAKER Inc.) was added. After stirring, luciferase activity was measured using 1420 ARVO Multilabel Counter (Wallac, Inc.). In addition, a test similar to the above was conducted for the non-use of the aforementioned test compound alone and for the non-use of the aforementioned test compound and compound A to determine the luciferase activity.
The human PPARγ1 antagonistic activity of the test compound was evaluated using percentages (% inhibition) wherein the luciferase activity when 10 nM compound A alone was added was 0%, and the luciferase activity when the test compound and compound A were not added was 100%. The concentration of the test compound was 10^−5 M for the compounds of Example 42 and 315 and 10^−6 M for other test compounds.
After a CHO-K1 cell cultured in a cell culture flask (150 cm^2) (produced by Corning Costar Corporation, USA) containing Ham's F-12 medium (produced by Life Technologies, Inc., USA) supplemented with 10% fetal bovine serum (produced by Life Technologies, Inc., USA) was detached by treating with 0.5 g/L trypsin-0.2 g/L EDTA (ethylenediaminetetraacetic acid) (produced by Life Technologies, Inc., USA), the cell was washed with PBS (phosphate-buffered saline) (produced by Life Technologies, Inc., USA), centrifuged (1000 rpm, 5 minutes), and then suspended in PBS. Subsequently, the DNA was introduced into the cells under the conditions shown below using GENE PULSER (produced by Bio-Rad Laboratories, USA).
Namely, to a cuvette having a 0.4 cm gap, added were 8×10^6 cells and 10 μg of plasmid pVgRXR2-hPPARγ obtained in Reference Example 4a and 10 μg of reporter plasmid pGL3-4ERPP-TK neo obtained in Reference Example 2a, which was subjected to electroporation at the voltage of 0.25 kV under the capacitance of 960 μF. Subsequently, the cell was transferred into a Ham's F-12 medium containing 10% fetal bovine serum and cultured for 24 hours and then the cells were detached again and centrifuged, and then suspended in HAM F12 medium containing 10% fetal bovine serum supplemented with 500 μg/ml of GENETICIN (produced by Life Technologies, Inc., USA) and 250 μg/ml of ZEOCIN (produced by Invitrogen, USA). The obtained suspension was diluted to the density of 10^4 cells/ml and inoculated to a 96-well plate (produced by Corning Costar Corporation, USA), which was cultured in a CO2 gas incubator at 37° C., whereby obtaining a GENETICIN- and ZEOCIN-resistant transformant. Subsequently, after the transformant cell line thus obtained was cultured in a 24-well plate (produced by Corning Costar Corporation, USA), selected was a cell line in which the luciferase was expressed and induced, i.e., PPARγ:RXRα:4ERPP/CHO-K1 cell by the addition of 10 μM pioglitazone hydrochloride.

inhibition at 1 µM [%] | Compound
111 | COc1cc(COc2nn(-c3ccccc3)cc2/C=C/c2csc(C(C)(C)C)n2)ccc1OCc1nc(-c2ccc(CC(=O)O)cc2)oc1C [Example 359, {4-[4-({4-[({4-[(E)-2-(2-tert-butyl-1,3-thiazol-4-yl)ethenyl]-1-phenyl-1H-pyrazol-3-yl}oxy)methyl]-2-methoxyphenoxy}methyl)-5-methyl-1,3-oxazol-2-yl]phenyl}acetic acid]
114 | COc1cc(COc2nn(-c3ccccc3)cc2/C=C/c2coc(C(C)(C)C)n2)ccc1OCc1nc(-c2ccc(CC(=O)O)cc2)oc1C [Example 371, {4-[4-({4-[({4-[(E)-2-(2-tert-butyl-1,3-oxazol-4-yl)ethenyl]-1-phenyl-1H-pyrazol-3-yl}oxy)methyl]-2-methoxyphenoxy}methyl)-5-methyl-1,3-oxazol-2-yl]phenyl}acetic acid]
112 | CCc1nc(/C=C/c2cn(-c3ccccc3)nc2OCc2ccc(OCc3nc(-c4cccc(-c5nnn[nH]5)c4)oc3C)c(OC)c2)cs1 [Example 373, 5-{3-[4-({4-[({4-[(E)-2-(2-ethyl-1,3-thiazol-4-yl)ethenyl]-1-phenyl-1H-pyrazol-3-yl}oxy)methyl]-2-methoxyphenoxy}methyl)-5-methyl-1,3-oxazol-2-yl]phenyl}-1H-tetrazole]

test system: not given; test: not given; conditions: not given

Compound | melting point [°C]
CCc1nc(/C=C/c2cn(-c3ccccc3)nc2OCc2ccc(OCc3nc(-c4cccc(-c5nnn[nH]5)c4)oc3C)c(OC)c2)cs1 [Example 373, 5-{3-[4-({4-[({4-[(E)-2-(2-ethyl-1,3-thiazol-4-yl)ethenyl]-1-phenyl-1H-pyrazol-3-yl}oxy)methyl]-2-methoxyphenoxy}methyl)-5-methyl-1,3-oxazol-2-yl]phenyl}-1H-tetrazole] | 144 to 147
CCc1nc(/C=C/c2cn(-c3ccccc3)nc2OCc2ccc(OCc3nc(-c4cccc(-c5noc(=O)[nH]5)c4)oc3C)c(OC)c2)cs1 [Example 375, 3-{3-[4-({4-[({4-[(E)-2-(2-ethyl-1,3-thiazol-4-yl)ethenyl]-1-phenyl-1H-pyrazol-3-yl}oxy)methyl]-2-methoxyphenoxy}methyl)-5-methyl-1,3-oxazol-2-yl]phenyl}-1,2,4-oxadiazol-5(4H)-one] | 139 to 140
CCc1nc(/C=C/c2cn(-c3ccccc3)nc2OCc2ccc(OCc3nc(-c4cccc(C(=O)NS(C)(=O)=O)c4)oc3C)c(OC)c2)cs1 [Example 376, 3-[4-({4-[({4-[(E)-2-(2-ethyl-1,3-thiazol-4-yl)ethenyl]-1-phenyl-1H-pyrazol-3-yl}oxy)methyl]-2-methoxyphenoxy}methyl)-5-methyl-1,3-oxazol-2-yl]-N-(methylsulfonyl)benzamide] | 211 to 213
CCOC(=O)Cc1ccc(-c2nc(COc3ccc(COc4nn(-c5ccccc5)cc4/C=C/c4nc(CC)sc4C)cc3OC)c(C)o2)cc1 [Example 378, ethyl {4-[4-({4-[({4-[(E)-2-(2-ethyl-5-methyl-1,3-thiazol-4-yl)ethenyl]-1-phenyl-1H-pyrazol-3-yl}oxy)methyl]-2-methoxyphenoxy}methyl)-5-methyl-1,3-oxazol-2-yl]phenyl}acetate] | 127 to 128
COc1cc(COc2nn(-c3ccccc3)cc2/C=C/c2nc(N3CCN(C(=O)OC(C)(C)C)CC3)sc2C)ccc1OCc1nc(-c2ccc(CC(=O)O)cc2)oc1C [Example 381, [4-(4-{[4-({[4-((E)-2-{2-[4-(tert-butoxycarbonyl)piperazin-1-yl]-5-methyl-1,3-thiazol-4-yl}ethenyl)-1-phenyl-1H-pyrazol-3-yl]oxy}methyl)-2-methoxyphenoxy]methyl}-5-methyl-1,3-oxazol-2-yl)phenyl]acetic acid] | 119 to 120
CCOC(=O)Cc1ccc(-c2nc(COc3ccc(COc4nn(-c5ccccc5)cc4/C=C/c4nc(N5CCCCC5)sc4C)cc3OC)c(C)o2)cc1 [Example 382, ethyl [4-{4-[(2-methoxy-4-{[(4-{(E)-2-[5-methyl-2-(piperidin-1-yl)-1,3-thiazol-4-yl]ethenyl}-1-phenyl-1H-pyrazol-3-yl)oxy]methyl}phenoxy)methyl]-5-methyl-1,3-oxazol-2-yl}phenyl]acetate] | 131 to 132
COc1cc(COc2nn(-c3ccccc3)cc2/C=C/c2nc(N3CCCCC3)sc2C)ccc1OCc1nc(-c2ccc(CC(=O)O)cc2)oc1C [Example 383, [4-{4-[(2-methoxy-4-{[(4-{(E)-2-[5-methyl-2-(piperidin-1-yl)-1,3-thiazol-4-yl]ethenyl}-1-phenyl-1H-pyrazol-3-yl)oxy]methyl}phenoxy)methyl]-5-methyl-1,3-oxazol-2-yl}phenyl]acetic acid] | 146 to 148

Second part, the molecule after the results:

melting point [°C] | Compound
112 to 114 | CCOC(=O)Cc1ccc(-c2nc(COc3ccc(COc4nn(-c5ccccc5)cc4/C=C/c4nc(N5CCN(C(=O)OC(C)(C)C)CC5)sc4C)cc3OC)c(C)o2)cc1 [Example 380, tert-butyl 4-{4-[(E)-2-(3-{[4-({2-[4-(2-ethoxy-2-oxoethyl)phenyl]-5-methyl-1,3-oxazol-4-yl}methoxy)-3-methoxybenzyl]oxy}-1-phenyl-1H-pyrazol-4-yl)ethenyl]-5-methyl-1,3-thiazol-2-yl}piperazine-1-carboxylate]
171 to 173 | COc1cc(COc2nn(-c3ccccc3)cc2/C=C/c2nc(N3CCOCC3)sc2C)ccc1OCc1nc(-c2ccc(CC(=O)O)cc2)oc1C [Example 385, [4-(4-{[2-methoxy-4-({[4-{(E)-2-[5-methyl-2-(morpholin-4-yl)-1,3-thiazol-4-yl]ethenyl}-1-phenyl-1H-pyrazol-3-yl]oxy}methyl)phenoxy]methyl)-5-methyl-1,3-oxazol-2-yl}phenyl]acetic acid]
113 to 115 | CCc1nc(/C=C/c2cn(-c3ccccc3)nc2OCc2ccc(OCc3nc(-c4cccc(NS(C)(=O)=O)c4)oc3C)c(OC)c2)cs1 [Example 388, N-{3-[4-({4-[({4-[(E)-2-(2-ethyl-1,3-thiazol-4-yl)ethenyl]-1-phenyl-1H-pyrazol-3-yl}oxy)methyl]-2-methoxyphenoxy}methyl)-5-methyl-1,3-oxazol-2-yl]phenyl}methanesulfonamide]
156 to 158 | CCc1nc(/C=C/c2cn(-c3ccccc3)nc2OCc2cc(OCc3nc(-c4ccc(CC(=O)O)cc4)oc3C)no2)cs1 [Example 390, (4-{4-[({5-[({4-[(E)-2-(2-ethyl-1,3-thiazol-4-yl)ethenyl]-1-phenyl-1H-pyrazol-3-yl}oxy)methyl]isoxazol-3-yl}oxy)methyl]-5-methyl-1,3-oxazol-2-yl}phenyl)acetic acid]
